# Results published in patent US20020002171A1, “Materials and methods for killing nematodes and nematode eggs” (priority 2000, published 2002).
# System: Caenorhabditis elegans
# Experiment: C. elegans L1 nematicidal dose response in 96-well plates, 5 day visual score (Example 2; same procedure for Example 7, Table 3)
# Assay type: in vivo
# Set-up: key to 5 Day Visual Score V1 / 5 Day Visual Score V2 / 5 Day Visual Score V3 / 5 Day Visual Score V4 / 5 Day Visual Score V6 / 5 Day Visual Score V5 / Initial HTS Run Visual Score / Follow-up HTS Run Visual Score: Dead: only stiff L1s (no movement); Dead (L4): worms are dead, but at a later larval stage; majority of worms are L1 (based on size) worms move when plate is tapped; majority of worms are L2 (based on size); majority of worms are L3 (based on size); majority of worms are L4 (based on size); AD: majority of worms are adult; #AD: 5 adult worms or less; B!: sterile (0-25 progeny); B: low broodsize (25-100 progeny); ˜B: moderate broodsize (100-250 progeny); <: reduced broodsize (250-500 progeny); OK: no effect (˜1000+ progeny)
# Settings: for 5 Day Visual Score V1 / 5 Day Visual Score V2 / 5 Day Visual Score V3 / 5 Day Visual Score V4 / 5 Day Visual Score V5 / 5 Day Visual Score V6: dose response; for 5 Day Visual Score V1: dilution V1, 5 day; for 5 Day Visual Score V2: dilution V2, 5 day; for 5 Day Visual Score V3: dilution V3, 5 day; for 5 Day Visual Score V4: dilution V4, 5 day; for 5 Day Visual Score V5: dilution V5, 5 day; for 5 Day Visual Score V6: dilution V6, 5 day
# Outline: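 Scoring was by eye at 100× on day 5, after incubation at 20° C, of 20 C. elegans L1s per well fed 1% E. coli HB101 in NGM. Compound columns V1–V6 spanned 70 μM to 0.3 μM in 3-fold steps, with 1.4% DMSO in the top well and as control.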
Compound,Follow-up HTS Run % Run,Follow-up HTS Run mOD,Initial HTS Run % Run,Initial HTS Run mOD,5 Day Visual Score V1,5 Day Visual Score V2,5 Day Visual Score V3,5 Day Visual Score V4,5 Day Visual Score V5,5 Day Visual Score V6,Initial HTS Run Visual Score,Follow-up HTS Run Visual Score
CCN(Cc1ccccc1)c1nc(NCc2ccccc2C(F)(F)F)ns1 [compound 320],118%,190 mOD,102%,112 mOD,L4#AD/B!,< (reduced broodsize (250-500 progeny)),OK (no effect (˜1000+ progeny)),OK (no effect (˜1000+ progeny)),OK (no effect (˜1000+ progeny)),OK (no effect (˜1000+ progeny)),,
C=CCN(CC=C)c1nc(NCc2ccccc2C(F)(F)F)ns1 [compound 321],116%,186 mOD,95%,105 mOD,,,,OK (no effect (˜1000+ progeny)),OK (no effect (˜1000+ progeny)),OK (no effect (˜1000+ progeny)),Dead/2L2,
CN(CCc1ccccc1)c1nc(NCc2ccccc2C(F)(F)F)ns1 [compound 322],111%,178 mOD,94%,103 mOD,B! (sterile (0-25 progeny)),,OK (no effect (˜1000+ progeny)),OK (no effect (˜1000+ progeny)),OK (no effect (˜1000+ progeny)),OK (no effect (˜1000+ progeny)),B!-Clear-Few Eggs,B (low broodsize (25-100 progeny))
CN(Cc1ccccc1)c1nc(NCc2ccccc2C(F)(F)F)ns1 [compound 323],120%,193 mOD,110%,121 mOD,L4#AD/B!,,OK (no effect (˜1000+ progeny)),< (reduced broodsize (250-500 progeny)),OK (no effect (˜1000+ progeny)),OK (no effect (˜1000+ progeny)),L3/L4/AD/B!-Clear,L4/AD/B!
Fc1ccc(N2CCN(c3nc(NCc4ccccc4)ns3)CC2)cc1 [compound 324],34%,54 mOD,114%,125 mOD,L1,,,OK (no effect (˜1000+ progeny)),< (reduced broodsize (250-500 progeny)),OK (no effect (˜1000+ progeny)),,
CCN(c1nc(NCc2ccccc2)ns1)C1CCCCC1 [compound 325],111%,179 mOD,103%,113 mOD,,#AD/˜B,< (reduced broodsize (250-500 progeny)),< (reduced broodsize (250-500 progeny)),< (reduced broodsize (250-500 progeny)),OK (no effect (˜1000+ progeny)),L3/L4/AD/B,L4/AD/B
CCN(Cc1ccccc1)c1nc(NCc2ccccc2)ns1 [compound 326],110%,177 mOD,95%,105 mOD,,,,OK (no effect (˜1000+ progeny)),OK (no effect (˜1000+ progeny)),OK (no effect (˜1000+ progeny)),,
C=CCN(CC=C)c1nc(NCc2ccccc2)ns1 [compound 327],106%,171 mOD,105%,115 mOD,Dead,B (low broodsize (25-100 progeny)),˜B (moderate broodsize (100-250 progeny)),OK (no effect (˜1000+ progeny)),OK (no effect (˜1000+ progeny)),OK (no effect (˜1000+ progeny)),L2/L3(Dead L3),
CN(Cc1ccccc1)c1nc(NCc2ccccc2)ns1 [compound 328],121%,195 mOD,120%,132 mOD,L1,L1,,,< (reduced broodsize (250-500 progeny)),,,
Cc1cccc(C)c1N1CCN(c2nc(NC3CCCCCCCCCCC3)ns2)CC1 [compound 329],78%,125 mOD,100%,110 mOD,Dead,Dead,,OK (no effect (˜1000+ progeny)),OK (no effect (˜1000+ progeny)),OK (no effect (˜1000+ progeny)),Dead (L2/L3),Dead
CCCCCCCCCCCCCCCCCCN(C)c1nc(NC2CCCCCCCCCCC2)ns1 [compound 330],56%,90 mOD,107%,118 mOD,Dead,Dead,,OK (no effect (˜1000+ progeny)),OK (no effect (˜1000+ progeny)),OK (no effect (˜1000+ progeny)),Dead (L2/L3),Dead
CCCCC(CC)CN(CC(CC)CCCC)c1nc(NC2CCCCCCCCCCC2)ns1 (centres unmarked) [compound 331],85%,137 mOD,95%,104 mOD,Dead,Dead,Dead,OK (no effect (˜1000+ progeny)),OK (no effect (˜1000+ progeny)),OK (no effect (˜1000+ progeny)),Dead,Dead
CCCCN(CC)c1nc(NC2CCCCCCCCCCC2)ns1 [compound 332],75%,121 mOD,92%,101 mOD,Dead,Dead,L1,OK (no effect (˜1000+ progeny)),OK (no effect (˜1000+ progeny)),OK (no effect (˜1000+ progeny)),Dead,Dead
CCCCN(Cc1ccccc1)c1nc(NC2CCCCCCCCCCC2)ns1 [compound 333],76%,123 mOD,93%,102 mOD,Dead,Dead,Dead,OK (no effect (˜1000+ progeny)),OK (no effect (˜1000+ progeny)),OK (no effect (˜1000+ progeny)),Dead,Dead
C=CCN(CC=C)c1nc(NC2CCCCCCCCCCC2)ns1 [compound 334],88%,141 mOD,98%,108 mOD,Dead,Dead,,OK (no effect (˜1000+ progeny)),OK (no effect (˜1000+ progeny)),OK (no effect (˜1000+ progeny)),Dead,
CN(CCc1ccccc1)c1nc(NC2CCCCCCCCCCC2)ns1 [compound 335],86%,139 mOD,97%,107 mOD,Dead,,,,,< (reduced broodsize (250-500 progeny)),Dead,Dead
CN(Cc1ccccc1)c1nc(NC2CCCCCCCCCCC2)ns1 [compound 336],90%,145 mOD,97%,107 mOD,Dead,Dead,,OK (no effect (˜1000+ progeny)),OK (no effect (˜1000+ progeny)),OK (no effect (˜1000+ progeny)),Dead/1AD/B!,
